We go through one molecule from EPA's ToxValDB 9.5 (doi:10.2903/j.efsa.2013.3182).

≈ marks a conversion by molar mass, not a printed value.

For one series, the system named is Apis mellifera. Particulars: acute, duration: 48 hours, mortality.
For a further series, the system named is Bibionidae. Conditions: chronic/long-term; duration: 28 days.
The subject of a further series is Canidae. Conditions: oral, Dog Other, organ weight.
In another series the test system is Colinus virginianus. Conditions: acute, oral, mortality.
The test system of a further series is Daphnia magna. Conditions: chronic/long-term; duration: 21 days; reproduction.
A further series relates to Oncorhynchus mykiss. Particulars: acute; duration: 96 hours; mortality.
The test system of another series is Pimephales promelas. Particulars: chronic/long-term; duration: 40 days; time to hatch.
The test system of another series is Rattus norvegicus. Conditions: acute; oral; mortality.
In a further series the test system is Tagia sp. Conditions: acute; duration: 14 days; mortality.
A further series relates to Aphidius rhopalosiphi. The series is described as follows: LR50; higher = less toxic. Particulars: chronic/long-term; duration: 7 days; mortality.
The test system of the next series is Typhlodromus pyri. The series is described as follows: LR50; higher = less toxic. Conditions: chronic/long-term; duration: 7 days; mortality.

Regarding `COc1cc(OC)n2nc(NS(=O)(=O)c3c(C(F)(F)F)ccnc3OC)nc2n1` [Pyroxsulam], the LD50 with Anas platyrhynchos (acute, oral, unspecified, mortality) was greater than 2000 mg/kg-day; in the series with Apis mellifera (dermal) it was greater than 100 µg/piece; in the series with Apis mellifera (oral, unspecified), greater than 107 µg/piece; in the series with Colinus virginianus, greater than 2000 mg/kg-day; in the series with Rattus norvegicus, greater than 2000 mg/kg-day. Besides, the NOAEL in the series with Anas platyrhynchos (reproductive) is 46.3 mg/kg-day; with Canidae (chronic, duration: 1 years), 89 mg/kg-day; in the series with Canidae (subchronic, duration: 90 days), 100 mg/kg-day. Also, the NOEC in the series on Bibionidae was 100 mg/L; in the series on Daphnia magna, 10.4 mg/L; in the series with Pimephales promelas, 10.1 mg/L. Moreover, the LC50 is greater than 988 mg/kg-day in the series on Colinus virginianus (diet), 5.9 µg/mL (≈ 13.6 µM) with Oncorhynchus mykiss and greater than 10000 mg/kg with Tagia sp.. Further, the LR50 in the series with Aphidius rhopalosiphi and in the series with Typhlodromus pyri was greater than 37.5 g/ha each time.

As a reminder, the NOAEL is the highest tested level that showed no adverse finding.
